In the NIST ThermoML archive (doi:10.1021/acs.jced.5b00992):
Numbers after ± are expanded uncertainties.

What was measured:
[1] = wn = mass fraction of the nth substance listed; details: 313.15 K, 88.4 kPa, Liquid; for viscosity: Capillary tube (Ostwald / Ubbelohde) method; for mass density: Pycnometric method
[2] = refractive index (Na D-line) (dimensionless); wn = mass fraction of the nth substance listed; details: 313.15 K, 88.4 kPa, Liquid, Standard Abbe refractometry

viscosity ([1]; w1 = 0.129) [mPa·s]	mass density ([1]; w1 = 0.129) [kg/m3]	refractive index ([2]; w1 = 0.129)	viscosity ([1]; w1 = 0.3237) [mPa·s]	mass density ([1]; w1 = 0.3237) [kg/m3]	refractive index ([2]; w1 = 0.3237)	SMILES
0.8181 ± 0.082	1097.5 ± 2.3	1.3466 ± 0.0006				O=S(=O)([O-])[O-].[K+].[K+] [potassium sulfate] + O
			2.871 ± 0.29	1317.6 ± 3.7	1.3774 ± 0.0006	O=S(=O)([O-])[O-].[Na+].[Na+] [sodium sulfate] + O
